Laboratory results published in patent publication US4254278A, “1-Descarboxy-1-ketoester (ketoacid)-prostaglandins” (American Cyanamid Company, priority 1979, dated 1981).

Experiments:
Format in all cases: in vivo, guinea pigs
[1] = tested on: bronchospasms elicited by acetylcholine; assay: Bronchodilator activity against acetylcholine-induced bronchospasm (Konzett procedure); settings: guinea pig; acetylcholine spasmogen; three logarithmic cumulative intravenous doses
Protocol: (§1) The compounds of this invention are useful as bronchodilators for the treatment of asthma and chronic bronchitis. Bronchodilator activity is determined in guinea pigs against bronchospasms elicited by intravenous injections of 5-hydroxytryptamine, histamine or acetylcholine by the Konzett procedure. [See J. Lulling, P. Lievens, F. El Sayed and J. Prignot, Arzneimittel-Forschung, 18, 955 (1968).]
(§2) In Table which follows bronchodilator activity for representative compounds of this invention against one or more of three spasmogenic agents is expressed as an ED50 determined from the results obtained with three logarithmic cummulative intravenous doses. In this assay, these compounds of this invention provide an effect of longer duration than does natural 1-PGE1 or 1-PGE2.

[2] = tested on: bronchospasms elicited by histamine; assay: Bronchodilator activity against histamine-induced bronchospasm (Konzett procedure); settings: guinea pig; histamine spasmogen; three logarithmic cumulative intravenous doses
Protocol: as §1, §2

[3] = tested on: bronchospasms elicited by 5-hydroxytryptamine; assay: Bronchodilator activity against 5-hydroxytryptamine-induced bronchospasm (Konzett procedure); settings: guinea pig; 5-hydroxytryptamine spasmogen; three logarithmic cumulative intravenous doses
Protocol: as §1, §2

| SMILES | ED50 ACH [1] [Mg/kg × 10^-6] | ED50 HIST. [2] [Mg/kg × 10^-6] | ED50 5HT [3] [Mg/kg × 10^-6] |
| --- | --- | --- | --- |
| CCCCCC(C)(O)/C=C/C1C(O)CC(=O)C1CCCCCCC(=O)C(=O)OCC (stereo not drawn) [d1-1,9-dioxo-1-carbethoxy-11α,15-dihydroxy-15-methyl-13-trans-prostene] | > 3.2 | 6050 | 4220 |
| CCCCC(C)(O)C/C=C/C1C(O)CC(=O)C1/C=C\CCCCC(=O)C(=O)OCC (stereo not drawn) [d1-1,9-dioxo-1-carbethoxy-11α,16-dihydroxy-16-methyl-6-cis-13-trans-prostadiene] | 5920 | 9310 | 9510 |
